Test results published in patent US12433908B2, “Use of nicotinamide riboside, nicotinic acid riboside, and nicotinamide mononucleotide, reduced nicotinyl compounds, and nicotinoyl compound derivatives in infant formula for healthy development” (ChromaDex, Inc., priority 2016, dated 2025).

Tests used:
milk proteins = assay: WaterLOGSY NMR direct binding of 15N-labeled NR to milk proteins; conditions: increasing additions of milk
Excerpt: Whey protein fraction and casein protein have been identified as leading candidates to bind directly to and stabilize nicotinamide riboside (NR, I) in milk. The addition of these proteins in particular (either alone or in combination with other proteins) in order to stabilize nicotinamide riboside (NR, I) in liquid constitutes another embodiment of a method of delivery of the present invention. […] In this experiment, Water-Ligand Observed via Gradient Spectroscopy (WaterLOGSY NMR) was used to detect direct binding of stable, isotope-labeled (^15N) nicotinamide riboside (NR, I) to milk proteins. This is visualized as a concentration-dependent shift in the nicotinamide riboside (NR, I) spectra with increasing additions of milk. The concentric shapes shifts from left to right are the results of addition of no milk, 150 mL of milk, and […] of milk, respectively.

[1] = Body weight of early-weaned piglets given NR solution; type: in vivo, piglets (Yorkshire/Hampshire crossbred)
Excerpt: Sixteen (n=16) Yorkshire/Hampshire crossbred piglets were obtained from the University of California, Davis Swine Teaching and Research Center and received on lactation day (“LD”) 14. Prior to arrive, the piglets were processed by the suppler between 1-3 days of age by administration of iron and an antibiotic (Excede for swine) as is common practice at the University of California, Davis Swine Facility. It is not common practice at the University of California, Davis Swine Facility to give a second dose of iron and antibiotics unless it becomes necessary.
The piglets were from two litters (litters 15 and 17), weaned at 17 days of age, and randomly placed into one of two groups balanced for litter, sex, and weight. The animals were not acclimated to the facility at arrival and were subsequently acclimated to the test diet administration system. The piglets were weaned into a temperature-controlled room (approximately 27-29° C.) that contained 10 adjacent pens. The piglets were group-housed in the nursery room at the Swine Facility, which is an enclosed room with access restricted to trained personnel. The two groups were separated by one pen containing piglets of similar age.
Each morning enough nicotinamide riboside (NR, I) in water solution was prepared for that day's dose administration according to the dose preparation protocol. At least 5 mL of prepared dose was reserved and immediately frozen after preparation each day for analysis of nicotinamide riboside (NR, I) for the purpose of confirming stability of the dose material. The doses were stored at refrigeration temperature while not in use. Nicotinamide riboside (NR, I) was dosed once per day in the morning and at the same time each day. Piglets in the control group received the same volume of plain water and were dosed on the same schedule.
The daily amount of nicotinamide riboside (NR, I) approximated the dose (33 mg/kg) used in human investigations of efficacy in areas of mitochondrial dysfunction converted to piglet equivalent dose using the body surface area method. See A. B. Nair & S. Jacob, A simple practice guide for dose conversion between animals and human, 7 J. BASIC CLIN. PHARMA 27 (2016), incorporated by reference herein in its entirety.
Starting on Day 1, animals in the nicotinamide riboside (NR, I) group were dosed once daily (in the morning) with 277 mg nicotinamide riboside (NR, I) per pig resuspended in water for seven days. After one week, animals were dosed once daily with 342 mg nicotinamide riboside (NR, I) per pig delivered in 2.5 mL for seven days. For Days 1 and 2, the nicotinamide riboside (NR, I) solution was prepared by resuspending 2770 mg nicotinamide riboside (NR, I) in 50 mL water, and 5 mL of this solution was delivered to each pig by squirting it into the back of the mouth using a 10 mL syringe with a piece of tubing attached to the end. To reduce the volume to more efficiently deliver the nicotinamide riboside (NR, I) solution, the 2770 mg was resuspended in 25 mL water and 2.5 mL of the solution was squirted into the back of the mouth of each pig using a 3 mL syringe for Days 3-7. […]
All animals were weighed at weaning (baseline) and after one and two weeks of nicotinamide riboside (NR, I) supplementation. Fecal and activity scores were recorded daily using the scales listed below. Weights and fecal scores were analyzed using a two-factor repeated measures ANOVA (mixed-model ANOVA) with p values<0.05 considered significant. […]

Question: Which “direct binding to milk proteins” value (milk proteins) does the source give for `NC(=O)c1ccc[n+]([C@@H]2O[C@H](CO)[C@@H](O)[C@H]2O)c1` [NR, Nicotinamide riboside] here?
Answer: Its value is “binds to proteins in milk”.

Question: What about the “health, nutritional quality, normal growth of piglets weaned 7 days early” value ([1]; 2-week feeding of NR) of the same compound?
Answer: The value was “did not negatively impact the health, nutritional quality, or normal growth”.

Question: What about the Weight ([1]; Baseline, before dosing) of the same compound?
Answer: The Weight was 7.77 ± 1.33 kg.

Question: What about the “body weight, NR vs. control” value ([1]; Week 1 or Week 2 of treatment) of the same compound?
Answer: Its value is “no differences in body weight”.

Question: What about the Weight ([1]; Wk 1, 277 mg/pig once daily oral) of the same compound?
Answer: Its Weight is 8.33 ± 1.56 kg.

Question: What about the Weight ([1]; Wk 2, 342 mg/pig once daily oral Days 8-14) of the same compound?
Answer: Its Weight is 9.39 ± 1.61 kg.
